Laboratory results taken from patent US12533384B2, “Lactobacillus reuteri CCFM1132 capable of relieving hyperuricemia and application thereof” (Jiangnan University, priority 2020, dated 2026).

Test system: mice with hyperuricemia
Test: Serum creatinine of mice with hyperuricemia (Mindray BS480 biochemical analyzer)
Format: in vivo, KunMing mice
Details: 5 mg/kg BW by intragastric administration
Experimental: 24 healthy male KunMing mice with the weight of 24 to 32 g were randomly divided into four groups after a week of acclimatization, namely a control group, a hyperuricemia model group, an L. reuteri CCFM1132 intervention group and an allopurinol intervention group (allopurinol). Except the control group, 500 mg/kg BW hypoxanthine was given to the other groups every day by intragastric administration, and 200 mg/kg BW oteracil potassium was intraperitoneally injected to the other groups 1 h later. At 1 h before processing with oteracil potassium, 100 g/L skim milk was given to the control group and the hyperuricemia model group, L. reuteri CCFM1132 with the concentration of 1.0×10^9 CFU/mouse was given to the L. reuteri CCFM1132 intervention group, and 5 mg/kg BW allopurinol was given to the allopurinol group.
At the end of the experiment, fresh feces of the mice was collected and frozen at −80° C. After the experiment was finished, the mice were subjected to fasting but free for drinking water for 12 h. 0.1 mL/10 g of […] pentobarbital sodium solution was intraperitoneally injected for anesthetization. […] The serum uric acid levels were determined by using a kit method.
Experimental animal groups and processing methods are the same as those of Example 3, and serum creatinine was detected by using a Mindray BS480 biochemical analyzer according to a kit method.

Q: With `Oc1ncnc2[nH]ncc12` [allopurinol] as the molecule, how does the “serum creatinine reducing effect” value read?
A: Its value is “does not have the reducing effect”.
